Test results reported in patent US20230192686A1, “1H-PYRROLO[2,3-B]PYRIDINES AND PREPARATION AND USES THEREOF” (BioSplice Therapeutics, Inc., priority 2021, published 2023).

Each compound was assayed against recombinant DYRK1A kinase (Homo sapiens, UniProt Q13627) (assay: DYRK1A kinase assay (Ser/Thr 18 peptide Z-lyte FRET)). Settings: DYRK1A kinase activity; 15 μM ATP, 4 μM Ser/Thr peptide 18, one hour at room temperature.
Type: biochemical
Procedure, shortened: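 Recombinant DYRK1A at 0.25 μg/mL was incubated 1 h at room temperature with 15 μM ATP, 4 μM Ser/Thr 18 peptide and compound, in duplicate, 11-point series from 10 μM. Phosphorylation was read by Z-lyte FRET after 1 h protease development, as the coumarin/fluorescein emission ratio converted to % phosphorylation. IC50 by non-linear regression.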

Row | Structure (SMILES) | EC50 [nM]
1 | CN1CCN(c2cccc(Nc3ccc4c(-c5ccn6ncc(-c7cnn(C)c7)c6c5)c[nH]c4n3)c2)CC1 [Compound 1930, 3-(3-(1-Methyl-1H-pyrazol-4-yl)pyrazolo[1,5-a]pyridin-5-yl)-N-(3-(4-methylpiperazin-1-yl)phenyl)-1H-pyrrolo[2,3-b]pyridin-6-amine] | 4
2 | CN1CCN(c2cccc(Nc3ccc4c(-c5ccc6c(c5)CCCO6)c[nH]c4n3)c2)CC1 [Compound 1945, 3-(Chroman-6-yl)-N-(3-(4-methylpiperazin-1-yl)phenyl)-1H-pyrrolo [2,3-]pyridin-6-amine] | 125
3 | CN1CCN(c2cccc(Nc3ccc4c(-c5ccc6ncccc6c5)c[nH]c4n3)c2)CC1 [Compound 1950, N-(3-(4-Methylpiperazin-1-yl)phenyl)-3-(quinolin-6-yl)-1H-pyrrolo [2,3-b]pyridin-6-amine] | 38
4 | Cc1nc2c(F)cc(-c3c[nH]c4nc(-c5cnn(C)c5)ccc34)cc2n1C(C)C [Compound 1963, 4-Fluoro-1-isopropyl-2-methyl-6-(6-(1-methyl-1H-pyrazol-4-yl)-1H-pyrrolo[2,3-b]pyridin-3-yl)-1H-benzo[d]imidazole] | 45
5 | CN1CCC(NC(=O)c2cnn3ccc(-c4c[nH]c5nc(-c6cnn(C)c6)ccc45)cc23)CC1 [Compound 1976, 5-(6-(1-Methyl-1H-pyrazol-4-yl)-1H-pyrrolo[2,3-b]pyridin-3-yl)-N-(1-methylpiperidin-4-yl)pyrazolo[1,5-a]pyridine-3-carboxamide] | 10
6 | CN1C2CCC1CN(C(=O)c1cnc3[nH]cc(-c4cc5ccncc5s4)c3c1)C2 [Compound 2041, (8-Methyl-3,8-diazabicyclo[3.2.1]octan-3-yl)(3-(thieno[2,3-c]pyridin-2-yl)-1H-pyrrolo[2,3-b]pyridin-5-yl)methanone] | 115
7 | c1cn2cc(-c3c[nH]c4nc(C5CCC5)ccc34)ncc2n1 [Compound 2042, 6-(6-Cyclobutyl-1H-pyrrolo[2,3-b]pyridin-3-yl)imidazo[1,2-a]pyrazine] | 345
8 | Cc1nc2c(F)cc(-c3c[nH]c4ncc(C(=O)O)cc34)cc2n1C(C)C [Compound 2043, 3-(4-Fluoro-1-isopropyl-2-methyl-1H-benzo[d]imidazol-6-yl)-1H-pyrrolo[2,3-b]pyridine-5-carboxylic acid] | 36

Next, values leading:

Row | EC50 [nM] | Structure (SMILES)
9 | 3 | Cc1nc2c(F)cc(-c3c[nH]c4ncc(C(=O)N5CC6CCC(C5)N6C)cc34)cc2n1C(C)C [Compound 2044, (3-(4-Fluoro-1-isopropyl-2-methyl-1H-benzo[d]imidazol-6-yl)-1H-pyrrolo[2,3-b]pyridin-5-yl)(8-methyl-3,8-diazabicyclo[3.2.1]octan-3-yl)methanone]
10 | 36 | Cc1nc2c(F)cc(-c3c[nH]c4nc(C(C)C)ccc34)cc2n1C(C)C [Compound 2045, 4-Fluoro-1-isopropyl-6-(6-isopropyl-1H-pyrrolo[2,3-b]pyridin-3-yl)-2-methyl-1H-benzo[d]imidazole]
11 | 32 | COc1cnc2[nH]cc(-c3ccn4ncc(C(=O)N5CCN(C)CC5)c4c3)c2c1 [Compound 2047, (5-(5-Methoxy-1H-pyrrolo[2,3-b]pyridin-3-yl)pyrazolo[1,5-a]pyridin-3-yl)(4-methylpiperazin-1-yl)methanone]
12 | 2540 | CN1CCC(NC(=O)c2ccc3c(-c4ccc5ncnn5c4)c[nH]c3n2)CC1 [Compound 2048, 3-([1,2,4]Triazolo[1,5-a]pyridin-6-yl)-N-(1-methylpiperidin-4-yl)-1H-pyrrolo[2,3-b]pyridine-6-carboxamide]
13 | 45 | CN1C2CCC1CN(C(=O)c1cnc3[nH]cc(-c4ccn5nccc5c4)c3c1)C2 [Compound 2049, (8-Methyl-3,8-diazabicyclo[3.2.1]octan-3-yl)(3-(pyrazolo[1,5-a]pyridin-5-yl)-1H-pyrrolo[2,3-b]pyridin-5-yl)methanone]
14 | 159 | CN1CCN(C(=O)c2cnn3ccc(-c4c[nH]c5ncc(C(F)(F)F)cc45)cc23)CC1 [Compound 2050, (4-Methylpiperazin-1-yl)(5-(5-(trifluoromethyl)-1H-pyrrolo[2,3-b]pyridin-3-yl)pyrazolo[1,5-a]pyridin-3-yl)methanone]
